Patent US12240870B2, “Sequencing method for CAR T cell therapy” (Purdue Research Foundation, priority 2018, dated 2025)
“Also recorded” adds a separate entry of the source.

How the values were obtained:
FRα (KB) = molecular target: T1, FRα (KB) (Homo sapiens, UniProt P15328); test: 3H-EC17 cell-based radioligand binding assay on KB cells; conditions: 2 h at 37° C.
T1 construct: endogenous in cells; host or cells: KB cells
Procedure: (§1) FIG. 10, Panel A: Kd values of ^3H-EC17 uptake by FR+ target cells after a 2 hour incubation at 37° C. (calculated from the numbers of molecules bound per cell). Panel B: Kd value of ^3H^−EC17 uptake by E2-CAR-T cells (˜24% EGFRt+, ˜95:5 CD8/CD4 ratio) after a 2 hour incubation at room temperate (calculated from total cell-associated radioactivity, DPM).
The bispecific affinities of EC17 CAM (a CAM is equivalent to a “bridge” or the “compound” in this application) were assessed using ^3H-EC17 in cell-based radioligand binding assays. […] The whole cell lysates were quantitated for the level of radioactivity and cellular protein content by standard Pierce BCA protein assay. The number of ^3H-EC17 molecules bound per cell was calculated to determine the dissociation constants (Kd) for FRα (KB) and FRβ (CHO-β) respectively (FIG. 10).
(§2) The EC17 has already been tested in the clinic for immunotherapy and optical imaging purposes. To directly quantify its bispecific binding affinities, ^3H-EC17 was synthesized and radioligand binding assays were carried out on KB and CHO-β cell lines representing FRα+ and FRβ+ target cells, respectively, and on unsorted EGFRt CAR-T cells representing the effector cells.

unsorted E2-CAR-T cells = test: 3H-EC17 uptake by E2-CAR-T cells; design: species or system human; conditions: unsorted E2-CAR-T cells (~24% EGFRt+, ~95:5 CD8/CD4), 2 hour at room temperature; read-out: Kd of 3H-EC17 binding to E2-CAR-T cells
Procedure: as §1, §2

THP1-FRβ xenografts = test: THP1-FRβ AML intravenous xenograft, E2 CAR-T cells plus EC17; format: in vivo, NSG mice
Procedure: Panel A: Schematic diagrams to show dose scheduling of EC17 plus unsorted EGFRt CAR-T cells (˜6 million, day 0) in NSG mice with 1-day-old intravenous THP1-FRβ xenografts. Starting 3 days after CAR-T cell injection, EC17 was dosed in 3 different ways: EC17 SIW 500 nmol/kg ([…] on days 3, 10, 17, 24, 31, and 38), EC17 TIW 5/50/500 nmol/kg (3 repeats of 5/50/500 nmol/kg on Monday/Wednesday/Friday followed by a 9-day break, i.e. on days 3/5/7, 17/19/21 and 31/33/35), or EC17 M/Th/M_dose escalation on Monday/Thursday/Monday (3 escalation cycles at 5/10/100 nmol/kg in Cycle 1, 5/30/300 nmol/kg in Cycle 2, and 5/50/500 nmol/kg in Cycle 3, i.e. on days 3/6/10, 17/20/24, and 31/34/38). Panel B: Measurements of change in body weight (n=5). Panel C: Circulating CAR-T cells as human CD3ε+ EGFRt+ events found per 100 μL of mouse whole blood on a logarithmic scale on day 31. Panel D: Left bar graph: circulating tumor cells (GFP+) per 100 μL of whole blood in all cohorts measured at the end of study (day 39); Middle bar graph: THP1-FRβ infiltrated liver weights representing liver metastatic burden; Right bar graph: total tumor weights of all non-liver macrometastases. Panel E: Flow cytometric analysis of T-cell exhaustion markers, PD1, LAG3, TIM3, on preinfusion CAR-T cell product (triple-negative) and tumor-infitrating CAR-T cells isolated from liver metastases. A cardinal feature of fully exhausted T cells is co-expression of multiple inhibitory receptor markers (i.e. triple-positive).
One objective of this E2-CAR T-cell study was to test EC17/E2 CAR-T cell activity and related toxicity (e.g. sCRS) using multiple dosing regimens starting 3 days after CAR-T infusion. Three different EC17 dosing regimens include (a) once-a-week (SIW) at 500 nmol/kg, (b) “TIW-like” at 5, 50, and 500 nmol/kg on Monday/Wednesday/Friday with 9-day intervals, and (c) “TIW-like” at […] on Monday/Thursday/Monday with 7-day intervals.
THP-1-FRβ AML tumor cells were grown in folate-deficient RPMI 1640 with 5-10% FBS at 37° C. in a 5% CO2 humidified atmosphere. THP-1-FRβ tumor cells in serum-free folate-deficient RPMI1640 medium were i.v. injected at 5×10^6 cells per animal.
Anti-FITC E2 scFv-CAR T cells were frozen in a T-cell freezing medium. Upon arrival, vials of frozen CAR-T cells were immediately stored at −80° C. The CAR-T cells were quickly thawed at 37° C., washed twice with CAR-T cell culture medium, and used for animal injection at 6 million viable EGFRt+ E2 CAR-T cells (CD4/CD8 at ˜1:1) per animal. A small aliquot was taken on the day infusion for flow cytometric analysis of E2-CAR T-cell phenotypes.
EC17 and bis-EDA-FITC dosing solutions were prepared when dosing began by weighing appropriate amounts of each compound, reconstituting in PBS, pH 7.4, sterile filtering the drug solution through a 0.22 μm PVDF syringe filter, and freezing aliquots for each day of dosing at −20° C.
All EC17 doses were given towards the end of day (3-4 PM) to allow potential CRS (cytokine release syndrome) to develop overnight. In the following morning, animals were scored according to a CRS grading system (see below).
Daily body weight measurement on the days after EC17 dose is required. Attention was given to gross animal morphology and behavior. Euthanasia was performed if mice lose a lot of weight in a short duration or when mice are approaching moribund conditions per CRS grading system or neurotoxicity.
Whole blood cell analysis: Plasma was removed from predetermined volumes of whole EDTA treated blood and RBCs were lysed with RBC lysis solution. […]

T1 sequence (P15328 25-234): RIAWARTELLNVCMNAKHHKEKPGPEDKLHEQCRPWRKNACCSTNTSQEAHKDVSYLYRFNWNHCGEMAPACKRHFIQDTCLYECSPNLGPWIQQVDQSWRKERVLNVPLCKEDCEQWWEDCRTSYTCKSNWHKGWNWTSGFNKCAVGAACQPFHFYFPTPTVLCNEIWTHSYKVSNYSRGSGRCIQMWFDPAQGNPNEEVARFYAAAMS

In the case of `Nc1nc2ncc(CNc3ccc(C(=O)N[C@@H](CCC(=O)NCCNC(=S)Nc4ccc(-c5c6ccc(=O)cc-6oc6cc(O)ccc56)c(C(=O)O)c4)C(=O)O)cc3)nc2c(=O)[nH]1` [EC17, FA-(γ)-ethylenediamine-FITC], the Kd (FRα (KB)) is reported as 1.7 nM, the Kd (unsorted E2-CAR-T cells) is reported as ~130 nM and the non-liver macrometastases (THP1-FRβ xenografts; EC17 SIW 500 nmol/kg) is reported as “successfully controlled non-liver macrometastases”. The CRS grade (THP1-FRβ xenografts; EC17 SIW 500 nmol/kg (Cohort 3)) was 1-2, the non-liver macrometastases (THP1-FRβ xenografts; EC17 TIW 5/50/500 nmol/kg on/off) was “successfully controlled non-liver macrometastases” and the “overall anti-tumor activity / THP1-FRβ tumor burden, comparison of regimens” value (THP1-FRβ xenografts; EC17 TIW 5/50/500 nmol/kg on/off (Cohort 4)) was “best anti-tumor activity among the three different EC17 dose schedules; also recorded: trended to be the best regimen for reducing overall THP1-FRβ tumor burden”. The “circulating THP1-FRβ tumor cells (GFP+) per 100 μL whole blood” value (THP1-FRβ xenografts; all three EC17 dosing regimens, day 39) was “significant reduction in circulating THP1 cell burden; also recorded: effectively reduced circulating THP1-FRβ tumor cells in the blood”, the “severe CRS (grades ≥3)” value (THP1-FRβ xenografts; any EC17 treated cohort (SIW, TIW, M/Th/M)) was “no severe CRS” and the body weight loss (THP1-FRβ xenografts; ~6 million E2 CAR-T + EC17 SIW 500 nmol/kg (Cohort 3)) was “EC17 dose-dependent body weight loss after each EC17 dose; also recorded: some body weight loss”. For the same compound, the body weight loss (THP1-FRβ xenografts; ~6 million E2 CAR-T + EC17 TIW 5/50/500 nmol/kg M/W/F, 9-day break (Cohort 4)) was “mildest body weight loss among three treatment groups; also recorded: least body weight loss”.
